What was measured:
[1] = target: PI3 Kinase γ (Homo sapiens, UniProt P48736); experiment: Fluorescence polarization assay for PI3K (PI3 Kinase γ); type: biochemical; conditions: diC8-PI(4,5)P2 substrate, 25 μM ATP, one hour at 25° C.
[2] = target: PI3 Kinase α (Homo sapiens, UniProt P42336); experiment: Fluorescence polarization assay for PI3K (PI3 Kinase α); type: biochemical; conditions: diC8-PI(4,5)P2 substrate, 25 μM ATP, one hour at 25° C.
Chain of PI3 Kinase α (P42336 whole entry): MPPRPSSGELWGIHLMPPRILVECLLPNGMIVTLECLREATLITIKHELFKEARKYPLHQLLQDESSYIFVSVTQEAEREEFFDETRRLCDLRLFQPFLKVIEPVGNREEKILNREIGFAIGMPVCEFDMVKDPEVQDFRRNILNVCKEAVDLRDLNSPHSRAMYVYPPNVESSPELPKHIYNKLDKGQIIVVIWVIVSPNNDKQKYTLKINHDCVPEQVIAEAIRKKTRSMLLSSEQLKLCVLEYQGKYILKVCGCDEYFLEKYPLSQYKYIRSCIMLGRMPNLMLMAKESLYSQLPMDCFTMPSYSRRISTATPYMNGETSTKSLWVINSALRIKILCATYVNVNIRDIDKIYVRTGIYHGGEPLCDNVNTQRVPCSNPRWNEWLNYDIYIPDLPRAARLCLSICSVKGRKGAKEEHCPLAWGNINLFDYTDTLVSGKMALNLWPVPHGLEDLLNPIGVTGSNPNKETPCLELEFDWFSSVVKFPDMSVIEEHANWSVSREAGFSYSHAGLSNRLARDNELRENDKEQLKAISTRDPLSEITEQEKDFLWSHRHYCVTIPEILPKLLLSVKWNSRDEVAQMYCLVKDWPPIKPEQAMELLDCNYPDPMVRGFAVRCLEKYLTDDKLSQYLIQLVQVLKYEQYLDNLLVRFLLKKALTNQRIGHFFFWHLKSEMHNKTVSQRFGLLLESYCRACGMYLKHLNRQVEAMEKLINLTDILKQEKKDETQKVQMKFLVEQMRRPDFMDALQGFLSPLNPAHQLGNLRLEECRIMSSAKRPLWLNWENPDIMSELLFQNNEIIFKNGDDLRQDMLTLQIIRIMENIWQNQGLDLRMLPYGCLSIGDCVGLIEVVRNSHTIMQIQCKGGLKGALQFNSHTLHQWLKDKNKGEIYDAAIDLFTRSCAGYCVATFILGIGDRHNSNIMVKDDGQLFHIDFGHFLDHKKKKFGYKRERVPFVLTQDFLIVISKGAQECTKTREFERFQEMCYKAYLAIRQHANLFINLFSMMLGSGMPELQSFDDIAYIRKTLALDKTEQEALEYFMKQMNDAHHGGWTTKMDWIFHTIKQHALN
Chain of PI3 Kinase α (P27986 whole entry partner): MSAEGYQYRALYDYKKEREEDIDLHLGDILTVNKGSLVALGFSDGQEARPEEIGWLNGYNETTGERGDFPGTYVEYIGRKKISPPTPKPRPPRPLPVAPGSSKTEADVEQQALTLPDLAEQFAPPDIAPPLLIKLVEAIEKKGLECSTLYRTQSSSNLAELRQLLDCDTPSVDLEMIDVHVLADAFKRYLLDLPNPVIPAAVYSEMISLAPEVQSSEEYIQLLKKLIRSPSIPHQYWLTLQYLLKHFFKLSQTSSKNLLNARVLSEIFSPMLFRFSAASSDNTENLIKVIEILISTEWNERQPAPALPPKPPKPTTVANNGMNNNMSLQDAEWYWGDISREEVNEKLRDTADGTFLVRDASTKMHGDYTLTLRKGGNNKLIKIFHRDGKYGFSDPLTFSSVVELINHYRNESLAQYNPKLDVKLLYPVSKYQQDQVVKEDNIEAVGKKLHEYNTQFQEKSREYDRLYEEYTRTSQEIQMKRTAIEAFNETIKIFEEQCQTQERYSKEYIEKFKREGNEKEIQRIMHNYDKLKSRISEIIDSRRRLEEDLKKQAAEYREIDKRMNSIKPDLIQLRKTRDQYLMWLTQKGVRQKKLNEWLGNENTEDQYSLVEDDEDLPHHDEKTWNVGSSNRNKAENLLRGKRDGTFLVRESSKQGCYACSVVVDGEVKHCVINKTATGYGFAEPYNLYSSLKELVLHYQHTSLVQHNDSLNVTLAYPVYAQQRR

Chain of PI3 Kinase γ (P48736 whole entry): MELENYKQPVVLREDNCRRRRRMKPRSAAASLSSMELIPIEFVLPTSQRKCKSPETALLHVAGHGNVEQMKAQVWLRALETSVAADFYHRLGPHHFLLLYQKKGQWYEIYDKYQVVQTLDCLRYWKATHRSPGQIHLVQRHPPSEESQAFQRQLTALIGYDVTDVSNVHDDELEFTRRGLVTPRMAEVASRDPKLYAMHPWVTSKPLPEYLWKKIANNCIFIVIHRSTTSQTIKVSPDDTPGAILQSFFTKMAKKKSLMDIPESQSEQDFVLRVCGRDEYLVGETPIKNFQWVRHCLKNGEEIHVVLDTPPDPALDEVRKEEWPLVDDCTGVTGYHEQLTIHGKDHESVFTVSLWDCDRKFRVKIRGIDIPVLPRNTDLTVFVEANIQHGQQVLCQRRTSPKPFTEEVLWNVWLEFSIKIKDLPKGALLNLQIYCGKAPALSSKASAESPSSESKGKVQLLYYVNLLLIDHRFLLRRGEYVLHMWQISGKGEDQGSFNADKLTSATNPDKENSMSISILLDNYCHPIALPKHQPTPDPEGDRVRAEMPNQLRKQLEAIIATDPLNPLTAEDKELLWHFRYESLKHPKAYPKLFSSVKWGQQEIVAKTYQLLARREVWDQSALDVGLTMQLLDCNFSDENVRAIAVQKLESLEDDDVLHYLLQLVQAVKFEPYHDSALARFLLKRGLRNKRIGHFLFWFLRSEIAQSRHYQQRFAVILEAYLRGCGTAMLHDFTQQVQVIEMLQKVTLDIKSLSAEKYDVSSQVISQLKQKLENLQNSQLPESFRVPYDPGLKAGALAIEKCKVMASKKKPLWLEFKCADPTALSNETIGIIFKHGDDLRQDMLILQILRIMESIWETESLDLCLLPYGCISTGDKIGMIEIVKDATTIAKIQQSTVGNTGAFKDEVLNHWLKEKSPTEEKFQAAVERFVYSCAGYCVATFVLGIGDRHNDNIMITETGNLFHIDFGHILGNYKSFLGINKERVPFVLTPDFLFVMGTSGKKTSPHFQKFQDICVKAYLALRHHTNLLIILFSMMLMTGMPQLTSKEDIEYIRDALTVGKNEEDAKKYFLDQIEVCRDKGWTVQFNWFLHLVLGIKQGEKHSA

| SMILES | IC50 [1] [nM] | IC50 [2] [nM] |
| --- | --- | --- |
| CCN1CCCC1CNC(=O)Nc1ccc(-c2nc(N3CCOCC3)c3nnn(C(C)C)c3n2)cc1 (centres unmarked) [Example 92, 1-(1-ethyl-pyrrolidin-2-ylmethyl)-3-[4-(3-isopropyl-7-morpholin-4-yl-3H-[1,2,3]triazolo[4,5-d]pyrimidin-5-yl)-phenyl]-urea] | 645 | 149 |
| O=C(Nc1cccnc1)c1ccc(Cn2nnc3c(N4CCOCC4)nc(-c4cccc(O)c4)nc32)cc1 [Example 216, 4-{[5-(3-hydroxyphenyl)-7-morpholin-4-yl-3H-[1,2,3]triazolo[4,5-d]pyrimidin-3-yl]methyl}-N-pyridin-3-ylbenzamide] | 361 | 58 |
| Oc1cncc(-c2nc(N3CCOCC3)c3nnn(C4CCN(Cc5ccc(F)cc5)CC4)c3n2)c1 [Example 14, 5-{3-[1-(4-fluorobenzyl)piperidin-4-yl]-7-morpholin-4-yl-3H-[1,2,3]triazolo[4,5-d]pyrimidin-5-yl}pyridin-3-ol] | 94 | 60 |
| CCn1nnc2c(N3CCOCC3)nc(-c3ccc(NC(=O)Nc4ccc(C(=O)N5CCN[C@H](C)C5)cc4)cc3)nc21 [Example 54, 1-[4-(3-ethyl-7-morpholin-4-yl-3H-[1,2,3]triazolo[4,5-d]pyrimidin-5-yl)phenyl]-3-(4-{[(3R)-3-methylpiperazin-1-yl]carbonyl}phenyl)urea] | 7 | < 1.8 |
| CCn1nnc2c(N3CCOCC3)nc(-c3ccc(NC(=O)NCCN(C)C)cc3)nc21 [Example 34, 1-[2-(dimethylamino)ethyl]-3-[4-(3-ethyl-7-morpholin-4-yl-3H-[1,2,3]triazolo[4,5-d]pyrimidin-5-yl)phenyl]urea] | 309 | 132 |
| CC(C)n1nnc2c(N3CCOCC3)nc(-c3ccc(NC(N)=O)cc3)nc21 [Example 96, [4-(3-isopropyl-7-morpholin-4-yl-3H-[1,2,3]triazolo[4,5-d]pyrimidin-5-yl)-phenyl]-urea] | 620 | 49.7 |
| CN1CCC(n2nnc3c(N4CCOCC4)nc(-c4cncc(O)c4)nc32)CC1 [Example 22, 5-[3-(1-methylpiperidin-4-yl)-7-morpholin-4-yl-3H-[1,2,3]triazolo[4,5-d]pyrimidin-5-yl]pyridin-3-ol] | 318 | 304 |
| O=C(Nc1ccc(-c2nc(N3CCOCC3)c3nnn(C4CCN(Cc5ccccc5)CC4)c3n2)cc1)C(F)(F)F [Example 5, N-{4-[3-(1-benzylpiperidin-4-yl)-7-morpholin-4-yl-3H-[1,2,3]triazolo[4,5-d]pyrimidin-5-yl]phenyl}-2,2,2-trifluoroacetamide] | 133 | 68 |
| O=C(Nc1ccc(-c2nc(N3CCOCC3)c3nnn(C4CCNCC4)c3n2)cc1)Nc1cccnc1 [Example 163, 1-[4-(7-morpholin-4-yl-3-piperidin-4-yl-3H-[1,2,3]triazolo[4,5-d]pyrimidin-5-yl)phenyl]-3-pyridin-3-ylurea] | 49.5 | 13.5 |
| CC(C)(C)OC(=O)N1CCN(c2ccc(NC(=O)c3ccc(Cn4nnc5c(N6CCOCC6)nc(-c6cccc(O)c6)nc54)cc3)cc2)CC1 [Example 218, tert-Butyl 4-{4-[(4-{[5-(3-hydroxyphenyl)-7-morpholin-4-yl-3H-[1,2,3]triazolo[4,5-d]pyrimidin-3-yl]methyl}benzoyl)amino]phenyl}piperazine-1-carboxylate] | 8080 | 71 |
| O=C(O)c1ccc(Cn2nnc3c(N4CCOCC4)nc(-c4cccc(O)c4)nc32)cc1 [Example 242, 4-{[5-(3-hydroxyphenyl)-7-morpholin-4-yl-3H-[1,2,3]triazolo[4,5-d]pyrimidin-3-yl]methyl}benzoic acid] | 842 | 509 |
| CCn1nnc2c(N3CCOCC3)nc(-c3ccc(NC(=O)Nc4ccc(C(N)=O)cc4)cc3)nc21 [Example 60, 4-({[4-(3-ethyl-7-morpholin-4-yl-3H-[1,2,3]triazolo[4,5-d]pyrimidin-5-yl)phenyl]carbamoyl}amino)benzamide] | 16.5 | < 2.6 |
| Nc1ccc(-c2nc(N3CCOCC3)c3nnn(C4CC4)c3n2)cc1 [Example 77, 4-(3-cyclopropyl-7-morpholino-3H-[1,2,3]triazolo[4,5-d]pyrimidin-5-yl)aniline] | 8000 | 1840 |

The remaining compounds from weak to strong by IC50 [1], led by results:

| IC50 [1] [nM] | IC50 [2] [nM] | SMILES |
| --- | --- | --- |
| 1700 | 658 | O=C(O)Cn1nnc2c(N3CCOCC3)nc(-c3cccc(CO)c3)nc21 [Example 240, {5-[3-(hydroxymethyl)phenyl]-7-morpholin-4-yl-3H-[1,2,3]triazolo[4,5-d]pyrimidin-3-yl}acetic acid] |
| 734 | 59 | Oc1cccc(-c2nc(N3CCOCC3)c3nnn(C4CCN(Cc5ccc(F)cc5)CC4)c3n2)c1 [Example 147, 3-{3-[1-(4-fluorobenzyl)piperidin-4-yl]-7-morpholin-4-yl-3H-[1,2,3]triazolo[4,5-d]pyrimidin-5-yl}phenol] |
| 549 | 148 | O=C(Nc1ccccc1)Nc1ccc(-c2nc(N3CCOCC3)c3nnn(CC4CN(Cc5ccc(F)cc5)C4)c3n2)cc1 [Example 192, 1-[4-(3-{[1-(4-fluorobenzyl)azetidin-3-yl]methyl}-7-morpholin-4-yl-3H-[1,2,3]triazolo[4,5-d]pyrimidin-5-yl)phenyl]-3-phenylurea] |
| 494 | 36.5 | CC(C)(C)OC(=O)N1CCC(n2nnc3c(N4CCOCC4)nc(-c4ccc(NC(=O)Nc5ccncc5)cc4)nc32)CC1 [Example 166, tert-butyl 4-(7-morpholin-4-yl-5-{4-[(pyridin-4-ylcarbamoyl)amino]phenyl}-3H-[1,2,3]triazolo[4,5-d]pyrimidin-3-yl)piperidine-1-carboxylate] |
| 346 | 19 | O=C(Nc1ccccc1)Nc1ccc(-c2nc(N3CCOCC3)c3nnn(CC4CN(C(=O)c5ccccc5)C4)c3n2)cc1 [Example 190, 1-(4-{3-[(1-benzoylazetidin-3-yl)methyl]-7-morpholin-4-yl-3H-[1,2,3]triazolo[4,5-d]pyrimidin-5-yl}phenyl)-3-phenylurea] |
| 223 | 21.5 | CC(C)(C)OC(=O)N1CCC(n2nnc3c(N4CCOCC4)nc(-c4ccc(NC(=O)Nc5cccnc5)cc4)nc32)CC1 [Example 150, tert-butyl 4-(7-morpholin-4-yl-5-{4-[(pyridin-3-ylcarbamoyl)amino]phenyl}-3H-[1,2,3]triazolo[4,5-d]pyrimidin-3-yl)piperidine-1-carboxylate] |
| 164 | 23.7 | OCc1cccc(-c2nc(N3CCOCC3)c3nnn(C4CCNCC4)c3n2)c1 [Example 176, [3-(7-morpholin-4-yl-3-piperidin-4-yl-3H-[1,2,3]triazolo[4,5-d]pyrimidin-5-yl)phenyl]methanol] |
| 55.5 | 7 | CCn1nnc2c(N3CCOC[C@@H]3C)nc(-c3ccc(NC(=O)Nc4ccncc4)cc3)nc21 [Example 71, (S)-1-(4-(3-ethyl-7-(3-methylmorpholino)-3H-[1,2,3]triazolo[4,5-d]pyrimidin-5-yl)phenyl)-3-(pyridin-4-yl)urea] |
| 12 | 1.6 | CCn1nnc2c(N3CCOCC3)nc(-c3ccc(NC(=O)Nc4ccc(C(=O)N(C)C)cc4)cc3)nc21 [Example 61, 4-({[4-(3-ethyl-7-morpholin-4-yl-3H-[1,2,3]triazolo[4,5-d]pyrimidin-5-yl)phenyl]carbamoyl}amino)-N,N-dimethylbenzamide] |

Reference: patent US20090181963A1, “3H-[1,2,3]TRIAZOLO[4,5-D]PYRIMIDINE COMPOUNDS, THEIR USE AS mTOR KINASE AND PI3 KINASE INHIBITORS, AND THEIR [sequence]” (Wyeth, priority 2008, published 2009)
